Measured values reported in patent US20220362299A1, “ENGINEERED NATURAL KILLER CELLS AND METHODS FOR USING THE SAME IN IMMUNOTHERAPY AND AUTOPHAGY INHIBITON TECHNIQUES” (Purdue Research Foundation, priority 2019, published 2022).
Blank lines part the entries; values can stand above or below the molecule they belong to.

Tests used:
pNK cells [1] = test: Transwell BBB migration assay of pNK cells; format: cell-based, human; details: 100 ng/mL in lower chamber, 6 hours
Description: To determine involvement of CCL5 and CXCL10 in the migration of NK cells, the migration of activated pNK cells toward CCL5 and CXCL10 gradients was then tracked using an in vitro BBB model setup by a direct contact co-culture of primary human astrocytes and […] human cerebral microvessel endothelial cells (FIG. 12, subpart G).
An in vitro direct contact co-culture blood-brain barrier (BBB) model was established as previously described^53. Briefly, human astrocytes were seeded at a density of 4×10^4 cells/cm^2 into 24-well Transwell® inserts (pore size 5 μm) pre-coated with 2 μg/cm^2 poly-L-lysine and allowed to proliferate/differentiate for 48 hours in media. Media was then removed and the hCMEC/D3 cells suspended into EBM-2 media were seeded at a density of 1×10^5 cells/cm^2.
The co-culture was grown in EBM-2 with media changes every other day for an additional 7 days before studies were conducted. 600 μL of RPMI1640 medium supplemented with 1% FBS containing recombinant CCL5 or CXCL10 at 100 ng/mL was placed in the lower chamber of the Transwell® plate. Activated pNK cells (5×10^5) in 100 μL RPM11640 medium supplemented with 1% FBS were placed into the upper chamber (5-μm pore size). After incubation for 6 hours at 37° C. and 5% CO2, the number of pNK cells that migrated into the lower chamber was determined by flow cytometry. […]

pNK cells [2] = test: Effect of adenosine on pNK cell viability (CCK-8) and NKG2D expression (flow cytometry); format: cell-based, human; details: 1000 μM adenosine, 24 h
Description: To verify this, pNK cells were seeded into a 24-well plate at a density of 5×10^5 cells/well in 500 μL medium. Adenosine was then added to a final concentration of 1000 μM. After 24 h, the cells were collected and their viability (%) was determined via a CCK-8 assay (subpart A of FIG. 2). The NKG2D expression (% and MFI) was determined by flow cytometry (subpart B of FIG. 2). […] These findings support that there is a need to increase NKG2D expression on NK cells through engineering.

GBM43 cells = test: ELISA of CCL5 and CXCL10 in supernatant of GBM43 cells; format: cell-based, human; details: with CQ 50 μM, 24 h
Source text: To evaluate changes in the protein levels of these chemokines and gain more insight into the underlying molecular mechanisms, chemokine concentrations were quantified in the conditioned media of CQ-treated GBM43 cells using ELISA in absence and presence of various pharmacological inhibitors driving signaling pathways for these chemokines. This included the PI3K inhibitor LY294002, NF-κB inhibitor BAY11-7082 and JNK inhibitor SP600125.
More specifically, to measure secreted CCL5 and CXCL10, GBM43 cells were treated with CQ at a final concentration of 50 μM in presence or absence of various small molecule inhibitors, including LY294002, BAY11-7082 and SP600125 for 24 hours. Supernatants were collected and the levels of CCL5 and CXCL10 were quantified using Human CCL5 and CXCL10 Biolegend-ELISA MAX™ Deluxe Sets according to the manufacturer's directions. To look at the levels of multiple chemokines secretion from GBM43 cells, the cell culture supernatants were also collected and all the selected targets were determined with the chemokine array provided by Eve Technologies (Calgary, Canada).

[3] = target: T1, CD73 (ecto-5'-nucleotidase, NT5E) on patient-derived GBM43 glioblastoma cells (human, UniProt P21589 27-549); test: immunofluorescence (Protein L) on sections of subcutaneous GBM43 xenograft tumors
T1 construct: whole, on cells; Endogenous surface CD73 of human patient-derived GBM43 cells, in culture or as xenograft tumors
T1 sequence (looked up): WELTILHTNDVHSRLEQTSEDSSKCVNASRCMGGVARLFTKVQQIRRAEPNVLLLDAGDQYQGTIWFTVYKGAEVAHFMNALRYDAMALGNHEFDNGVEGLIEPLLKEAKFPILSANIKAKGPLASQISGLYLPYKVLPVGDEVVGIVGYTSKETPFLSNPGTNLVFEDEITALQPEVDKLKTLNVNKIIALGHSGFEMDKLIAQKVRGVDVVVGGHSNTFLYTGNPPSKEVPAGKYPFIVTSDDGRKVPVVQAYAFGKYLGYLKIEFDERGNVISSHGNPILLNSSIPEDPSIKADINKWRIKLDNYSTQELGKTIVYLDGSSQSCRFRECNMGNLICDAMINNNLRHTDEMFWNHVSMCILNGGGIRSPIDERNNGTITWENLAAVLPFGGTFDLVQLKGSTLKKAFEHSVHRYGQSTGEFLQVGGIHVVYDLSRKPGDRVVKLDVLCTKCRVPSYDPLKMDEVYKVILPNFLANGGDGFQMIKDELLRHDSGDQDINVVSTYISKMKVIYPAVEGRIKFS

CD73 = CD73 activity of GBM43 cells (AMP hydrolysis, malachite green phosphate assay); format: cell-based, human
Description: To test for CD73 activity and its ability to generate adenosine, GBM43 cells were seeded at 2×10^4 cells per well in a 96-well plate in complete DMEM. After overnight incubation, GBM43 cells were incubated with anti-CD73 scFv following uPA (100 nM)-mediated cleavage from either CD73.mCAR-NK92 or CD73.mCAR-pNK cells during incubation for 6 hours. Then, the cell medium was removed and cells were rinsed three times with phosphate-free buffer (117 mM NaCl, 5.3 mM KCl, 1.8 mM MgCl2, 26 mM NaHCO3, 10 mM glucose, pH 7.4, diluted in ddH2O). AMP (250 μM final), diluted in phosphate-free buffer, was added and incubated for 10 min at 37° C. Finally, the phosphate (Pi) concentrations resulting from AMP hydrolysis were measured using a malachite green phosphate assay kit following the manufacturer's instructions.

Molecule: CXCL10: Recombinant human CXCL10
migration of activated pNK cells along ligand gradient across in vitro BBB (pNK cells [1]): significantly increased

Molecule: Nc1ncnc2c1ncn2[C@@H]1O[C@H](CO)[C@@H](O)[C@H]1O [adenosine]
cell viability of pNK cells (pNK cells [2]; CCK-8): clear negative affect
NKG2D expression on pNK cells (pNK cells [2]; flow cytometry): decreased

Molecule: Cc1ccc(S(=O)(=O)/C=C/C#N)cc1 [BAY11-7082]
inhibition of the CQ-elevated production of CCL5 and CXCL10 (GBM43 cells): significantly inhibited

B1: CCL5: Recombinant human RANTES (CCL5) (protein, UniProt P13501 24-91, looked up)
C-C motif chemokine 5: SPYSSDTTPCCFAYIARPLPRAHIKEYFYTSGKCSNPAVVFVTRKNRQVCANPEKKWVREYINSLEMS
migration of activated pNK cells along ligand gradient across in vitro BBB (pNK cells [1]): significantly increased

binding result [3]: binds
B2: anti-CD73 scFv cleaved by uPA or tumor-associated proteases from Construct 1 (CD73.mCAR) on engineered NK cells (scFv)
scFv: EVQLLESGGGLVQPGGSLRLSCAASGFTFSSYAYSWVRQAPGKGLEWVSAISGSGGRTYYADSVKGRFTISRDNSKNTLYLQMNSLRAEDTAVYYCARLGYGRVDEWGRGTLVTVSSGGGGSGGGGSGGGGSQSVLTQPPSASGTPGQRVTISCSGSLSNIGRNPVNWYQQLPGTAPKLLIYLDNLRLSGVPDRFSGSKSGTSASLAISGLQSEDEADYYCATWDDSHPGWTFGGGTKLTVLGGGGSGGGGSGGGGS
notes: Soluble fragment released from CD73.mCAR-NK92 or CD73.mCAR-pNK cells, by 100 nM uPA in vitro or by tumor proteases in vivo; also called αCD73 scFv; aCD73 scFv; not shown: the cleavage site is

B3: anti-CD73 scFv: CD73-blocking single chain antibody fragment released from the CAR by uPA / tumor-associated protease cleavage (protein)
scFv: EVQLLESGGGLVQPGGSLRLSCAASGFTFSSYAYSWVRQAPGKGLEWVSAISGSGGRTYYADSVKGRFTISRDNSKNTLYLQMNSLRAEDTAVYYCARLGYGRVDEWGRGTLVTVSSGGGGSGGGGSGGGGSQSVLTQPPSASGTPGQRVTISCSGSLSNIGRNPVNWYQQLPGTAPKLLIYLDNLRLSGVPDRFSGSKSGTSASLAISGLQSEDEADYYCATWDDSHPGWTFGGGTKLTVLGGGGSGGGGSGGGGS
modifications: left off: small tags and cut ends
production of extracellular adenosine by GBM43 cells (CD73 activity) (CD73; scFv cleaved by uPA from CD73.mCAR-NK92 cells): significantly decreased production
ability of GBM43 cells to produce adenosine (CD73 activity) (CD73; scFv cleaved from CD73.mCAR-pNK cells): significantly reduced ability to produce adenosine
